This passage reports IC50 results from PMC7825493, “Characterization of LDD-2633 as a Novel RET Kinase Inhibitor with Anti-Tumor Effects in Thyroid Cancer” (Pharmaceuticals, 2021).

For the test, the target named is RET kinase (Homo sapiens, UniProt P07949). As to the kind of experiment: HTRF KinEASE-TK (TR-FRET) kinase assay with recombinant RET, […] ATP. It counts as biochemical.

The structures appear in SMILES notation. Structures can show the parent of a compound that is named as a salt.

RET kinase, sequence (P07949 29-1114): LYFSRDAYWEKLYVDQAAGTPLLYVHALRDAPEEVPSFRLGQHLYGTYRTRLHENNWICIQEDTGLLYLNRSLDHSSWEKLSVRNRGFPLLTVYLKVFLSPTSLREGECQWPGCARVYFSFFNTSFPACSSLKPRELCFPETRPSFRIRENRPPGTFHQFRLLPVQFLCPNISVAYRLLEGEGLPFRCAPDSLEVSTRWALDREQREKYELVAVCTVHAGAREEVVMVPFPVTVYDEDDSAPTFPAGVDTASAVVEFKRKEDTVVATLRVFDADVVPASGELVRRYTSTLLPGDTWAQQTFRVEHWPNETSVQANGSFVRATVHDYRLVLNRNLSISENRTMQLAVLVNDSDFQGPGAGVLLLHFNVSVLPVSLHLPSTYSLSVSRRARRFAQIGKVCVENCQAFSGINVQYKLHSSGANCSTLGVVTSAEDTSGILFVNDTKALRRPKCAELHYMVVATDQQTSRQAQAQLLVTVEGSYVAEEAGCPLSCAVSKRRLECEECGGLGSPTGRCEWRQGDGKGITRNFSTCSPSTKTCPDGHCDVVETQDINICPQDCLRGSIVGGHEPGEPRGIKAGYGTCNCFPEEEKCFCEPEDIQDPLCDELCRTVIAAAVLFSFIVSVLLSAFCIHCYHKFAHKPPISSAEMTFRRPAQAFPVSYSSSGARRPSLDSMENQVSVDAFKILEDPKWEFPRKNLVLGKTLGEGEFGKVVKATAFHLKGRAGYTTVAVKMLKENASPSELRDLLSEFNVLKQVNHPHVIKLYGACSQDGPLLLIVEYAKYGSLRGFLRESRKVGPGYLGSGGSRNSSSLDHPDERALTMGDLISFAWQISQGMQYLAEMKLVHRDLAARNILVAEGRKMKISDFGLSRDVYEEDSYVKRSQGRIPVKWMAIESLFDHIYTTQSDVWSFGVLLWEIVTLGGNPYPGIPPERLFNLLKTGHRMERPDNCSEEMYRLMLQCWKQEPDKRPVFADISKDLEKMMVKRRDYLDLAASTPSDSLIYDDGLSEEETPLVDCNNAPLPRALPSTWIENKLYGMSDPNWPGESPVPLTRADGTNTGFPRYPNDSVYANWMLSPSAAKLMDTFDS

Take `O=C1Nc2ccccc2/C1=C1/Nc2ccccc2/C1=N\OCCN1CCNCC1` [LDD-2633, (2Z,3E)-3-((2-(piperazin-1-yl)ethoxy)imino)-[2,3′-biindolinylidene]-2′-one hydrochloride]: the 50% inhibitory concentration (IC50) came out at 4.42 nM.
